Here are results for three compounds from patent US4025629A, “P-(trifluoromethylquinolylamino)benzamides, pharmaceutical dosage forms and method of treatment” (The Upjohn Company, priority 1975, dated 1977).

Several values for one entry are separate records, joined by “and”; a condition that tells them apart may be missing. Equal entries are not always repeated.

Assay [1] relates to Schistosoma Mansoni cercariae. The following applies: 160 mg./kg. subcutaneously; cited from earlier work.
The subject of assay [2] is Plasmodium berghei. The conditions noted are these: mice; 160 mg./kg. subcutaneously; cited from earlier work.
For assay [3], the system named is unanesthetized normotensive rats. The assay is described as follows: Hypotensive effect (mean arterial pressure) in unanesthetized normotensive rats, oral aqueous suspension. The following applies: for B.P. Change: individual rats. The format is in vivo, rat. As for the experimental part:
An aqueous suspension for oral administration is prepared by suspending the essential active ingredient at a concentration of 10 mg./ml. in an aqueous solution containing 1% of sodium carboxymethylcellulose. This suspension is used for bringing about hypotensive effects in unanesthetized normotensive rats. The rats are prepared for measuring blood pressure directly from the aorta through a chronic indwelling cannula (Weeks and Jones, Proc. Soc. Exptl. Biol. and Med., 104, 646, 1960). Mean arterial pressure is measured prior to and at four hours and 24 hours after drug administration at a specified dose.

The test system of assay [4] is male mice (motor activity). The assay is described as follows: Inhibition of motor activity of mice on drug-containing diet (actophotometers). The format is in vivo, mouse. The conditions noted are these: after 20 hours on diet. Here is the method:
The essential active ingredient is suspended in a normal mouse diet to provide a concentration in the diet of from about 0.03 to about 0.3%. Groups of male mice, 18-22 gm. each, are fed a stock diet containing various concentrations of the essential active ingredient. Motor activity is determined after 20 hours on the diet, four groups of two mice from each test group being placed in actophotometers. After a ten minute acclimation period, motor activity is recorded for a ten minute period with the following results: […]

As for `CN1CCN(C(=O)c2ccc(Nc3ccnc4cc(Cl)ccc34)cc2)CC1` [1-[p-[(7-chloro-4-quinolyl)amino]-N,N-(3-methyl-3-azapentamethylene]benzamide], the “activity against Schistosoma Mansoni cercariae in mice” value in assay [1] is on record as “Slight activity”. Besides, in assay [2], the “activity against Plasmodium berghei” value is given as “Slight activity”.

In the case of `CN1CCN(C(=O)c2ccc(Nc3ccnc4cc(C(F)(F)F)ccc34)cc2)CC1` [essential active ingredient, p-[(7-trifluoromethyl-4-quinolyl)amino]-N,N-(3-methyl-3-azapentamethylene)benzamide], the “B.P. Change” value in assay [3] (oral 1 mg./kg., 4 hr.) was 0 mm Hg; in assay [3] (oral 1 mg./kg., 24 hr.), -10 mm Hg and 0 mm Hg; in assay [3] (oral 3.12 mg./kg., 4 hr.), -18 mm Hg and +12 mm Hg and 0 mm Hg; in assay [3] (oral 3.12 mg./kg., 24 hr.), -18 mm Hg and -10 mm Hg; in assay [3] (oral 6.35 mg./kg., 4 hr.) it was -14 mm Hg and -16 mm Hg; in assay [3] (oral 6.35 mg./kg., 24 hr.), -10 mm Hg and -14 mm Hg. Besides, the “B.P. Change” value was -24 mm Hg and -12 mm Hg in assay [3] (oral 12.5 mg./kg., 24 hr.); -22 mm Hg and -30 mm Hg and -12 mm Hg in assay [3] (oral 25 mg./kg., 4 hr.); -22 mm Hg and -28 mm Hg and -20 mm Hg in assay [3] (oral 25 mg./kg., 24 hr.); -16 mm Hg and -22 mm Hg in assay [3] (oral 50 mg./kg., 4 hr.); -22 mm Hg and -28 mm Hg and 0 mm Hg in assay [3] (oral 50 mg./kg., 24 hr.). Further, the “B.P. Change, avg” value is listed as -13 mm Hg in assay [3] (oral 6.35 mg./kg., 4 hr., average of 4 rats (initial avg 138)); -12 mm Hg in assay [3] (oral 6.35 mg./kg., 24 hr., average of 4 rats (initial avg 138)); -17 mm Hg in assay [3] (oral 12.5 mg./kg., 24 hr., average of 4 rats (initial avg 132)); -18 mm Hg in assay [3] (oral 25 mg./kg., 4 hr., average of 4 rats (initial avg 138)); -23 mm Hg in assay [3] (oral 25 mg./kg., 24 hr., average of 4 rats (initial avg 138)); -13 mm Hg in assay [3] (oral 50 mg./kg., 4 hr., average of 4 rats (initial avg 133)). Besides, the “B.P. Change, avg” value in assay [3] (oral 50 mg./kg., 24 hr., average of 4 rats (initial avg 133)) was -17 mm Hg. In addition, the “% Inhibition Motor Activity” value is 96% in assay [4] (0.1% conc. in diet, 24 hour drug intake 95 mg./kg.); 68% in assay [4] (0.3% conc. in diet (third line), 24 hour drug intake 47 mg./kg.); 92% in assay [4] (0.3% conc. in diet, 24 hour drug intake 94 mg./kg.).

In the case of `CN1CCN(C(=O)c2cccc(Nc3ccnc4cc(Cl)ccc34)c2)CC1` [its meta isomer], the “activity against Schistosoma Mansoni cercariae in mice” value in assay [1] is reported as “Slight activity”. Also, the “activity against Plasmodium berghei” value in assay [2] is listed as “Slight activity”.
